Reference: the supplement of paper PMC11061612

Assays:
[1] = system: CAL-62 (Thyroid Gland Carcinoma); assay: Bliss excess, mean over the matrix (fraction); higher = more synergy
Method in brief: (§1)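 Bliss excess equals the observed combination effect minus the expected value EA + EB − EA·EB, where EA and EB are the effects of each agent alone. Combination Emax is the second-highest inhibition within the matrix. Inhibition was scaled from CellTiter-Glo 2.0 luminescence, with 0 set by vehicle wells and 1 by blank wells, after 72 hours of two-drug dosing of cells plated in 1536-well plates.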

[2] = system: HSC-39 (Gastric Carcinoma); assay: as above
Method in brief: as §1

[3] = system: IST-MES1 (Mesothelioma); assay: as above
Method in brief: as §1

[4] = system: LK-2 (Squamous Cell Lung Carcinoma); assay: as above
Method in brief: as §1

[5] = system: MFE-280 (Endometrial Carcinoma); assay: as above
Method in brief: as §1

[6] = system: MKN45 (Gastric Carcinoma); assay: as above
Method in brief: as §1

[7] = system: NB12 (Neuroblastoma); assay: as above
Method in brief: as §1

[8] = system: NCI-H2342 (Lung Adenocarcinoma); assay: as above
Method in brief: as §1

[9] = system: PANC-03-27 (Pancreatic Carcinoma); assay: as above
Method in brief: as §1

[10] = system: PSN1 (Pancreatic Carcinoma); assay: as above
Method in brief: as §1

[11] = system: RCM-1 (Colorectal Carcinoma); assay: as above
Method in brief: as §1

[12] = system: REH (B-Lymphoblastic Leukemia); assay: as above
Method in brief: as §1

[13] = system: RKN (Other Solid Carcinomas); assay: as above
Method in brief: as §1

[14] = system: SF539 (Glioblastoma); assay: as above
Method in brief: as §1

[15] = system: SK-MEL-2 (Melanoma); assay: as above
Method in brief: as §1

[16] = system: SK-PN-DW (Other Solid Carcinomas); assay: as above
Method in brief: as §1

[17] = system: OPM-2 (Plasma Cell Myeloma); assay: combination Emax (second highest fraction inhibited in the dose matrix, 72 h); higher = more inhibition; extreme values may be limits of the assay
Method in brief: as §1

[18] = system: OVMIU (Ovarian Carcinoma); assay: as above
Method in brief: as §1

[19] = system: SF539 (Glioblastoma); assay: as above
Method in brief: as §1

[20] = system: VAL (B-Cell Non-Hodgkin's Lymphoma); assay: as above
Method in brief: as §1

Row | Compound | Bliss excess [1] | Bliss excess [2] | Bliss excess [3] | Bliss excess [4] | Bliss excess [5] | Bliss excess [6] | Bliss excess [7] | Bliss excess [8] | Bliss excess [9] | Bliss excess [10] | Bliss excess [11] | Bliss excess [12] | Bliss excess [13] | Bliss excess [14] | Bliss excess [15] | Bliss excess [16] | combination Emax [17] | combination Emax [18] | combination Emax [19] | combination Emax [20]
1 | C=CCn1c(=O)c2cnc(Nc3ccc(N4CCN(C)CC4)cc3)nc2n1-c1cccc(C(C)(C)O)n1 [AZD1775] + CCc1c2c(nc3ccc(O)cc13)-c1cc3c(c(=O)n1C2)COC(=O)[C@]3(O)CC [SN-38] (first compound max 1 µM, partner max 0.3 µM) | -0.0489 | -0.0065 | 0.0008 | 0.0768 | -0.0149 | -0.0893 | -0.0514 | 0.0025 | -0.0585 | -0.0499 | -0.0402 | -0.0887 | 0.0378 | -0.0037 | 0.0426 | -0.0903 | 0.954 | 0.587 | 0.997 | 0.953
2 | C=CCn1c(=O)c2cnc(Nc3ccc(N4CCN(C)CC4)cc3)nc2n1-c1cccc(C(C)(C)O)n1 [AZD1775] + Nc1ccn([C@@H]2O[C@H](CO)[C@@H](O)C2(F)F)c(=O)n1 [Gemcitabine] (first compound max 1 µM, partner max 0.3 µM) | -0.0162 | 0.0379 | 0.0603 | 0.117 | -0.0175 | -0.116 | 0.0471 | 0.0724 | -0.0383 | 0.0451 | 0.0233 | -0.0139 | 0.0082 | 0.0282 | -0.0156 | -0.0347 | 0.953 | 0.608 | 0.986 | 0.794
3 | CN(CCO)CC[C@H](CSc1ccccc1)Nc1ccc(S(=O)(=O)NC(=O)c2ccc(N3CCC([C@@H](O)c4ccccc4-c4ccc(Cl)cc4)CC3)cc2)cc1S(=O)(=O)C(F)(F)F [AZD4320] + CC(=O)O[C@H]1C(=O)[C@@]2(C)[C@H]([C@H](OC(=O)c3ccccc3)[C@]3(O)C[C@H](OC(=O)[C@H](O)[C@@H](NC(=O)c4ccccc4)c4ccccc4)C(C)=C1C3(C)C)[C@]1(OC(C)=O)CO[C@@H]1C[C@@H]2O [Paclitaxel] (first compound max 1 µM, 7x7, partner max 3 µM) | 0.0036 | 0.0069 | 0.0787 | 0.0318 | 0.171 | -0.121 | 0.0333 | 0.0455 | 0.0599 | 0.0166 | 0.0793 | 0.0132 | 0.0901 | 0.0404 | 0.148 | 0.0738 | 1 | 0.929 | 1 | 1
4 | CN(CCO)CC[C@H](CSc1ccccc1)Nc1ccc(S(=O)(=O)NC(=O)c2ccc(N3CCC([C@@H](O)c4ccccc4-c4ccc(Cl)cc4)CC3)cc2)cc1S(=O)(=O)C(F)(F)F [AZD4320] + CS(=O)(=O)CCNCc1ccc(-c2ccc3ncnc(Nc4ccc(OCc5cccc(F)c5)c(Cl)c4)c3c2)o1 [Lapatinib] (first compound max 1 µM, 7x7, partner max 10 µM) | 0.0444 | 0.0057 | 0.0367 | 0.0876 | 0.0411 | -0.0888 | 0.0902 | -0.0137 | 0.023 | -0.0405 | 0.0202 | 0.0721 | -0.0121 | -0.0026 | -0.0501 | -0.0829 | 0.938 | 0.971 | 0.575 | 1
5 | CN(CCO)CC[C@H](CSc1ccccc1)Nc1ccc(S(=O)(=O)NC(=O)c2ccc(N3CCC([C@@H](O)c4ccccc4-c4ccc(Cl)cc4)CC3)cc2)cc1S(=O)(=O)C(F)(F)F [AZD4320] + Nc1ccn([C@@H]2O[C@H](CO)[C@@H](O)C2(F)F)c(=O)n1 [Gemcitabine] (first compound max 1 µM, 7x7, partner max 0.3 µM) | 0.0487 | -0.0867 | 0.0448 | 0.083 | -0.0216 | -0.0393 | 0.0268 | 0.0364 | -0.0203 | -0.0027 | -0.0271 | 0.0126 | -0.0164 | -0.0356 | -0.0453 | -0.0422 | 0.628 | 0.596 | 0.945 | 1
6 | Cc1c2c(nn1C)CSCc1cc(n(C)n1)CSc1cc(c3ccccc3c1)OCCCc1c(C(=O)O)n(C)c3c-2c(Cl)ccc13 [AZD5991] + CC(=O)O[C@H]1C(=O)[C@@]2(C)[C@H]([C@H](OC(=O)c3ccccc3)[C@]3(O)C[C@H](OC(=O)[C@H](O)[C@@H](NC(=O)c4ccccc4)c4ccccc4)C(C)=C1C3(C)C)[C@]1(OC(C)=O)CO[C@@H]1C[C@@H]2O [Paclitaxel] (first compound max 1 µM, 7x7, partner max 3 µM) | -0.0941 | 0.0078 | -0.007 | 0.0165 | -0.0363 | -0.0238 | -0.0424 | 0.082 | 0.0181 | 0.0098 | 0.0336 | -0.0011 | -0.0775 | 0.0053 | -0.0341 | -0.0012 | 1 | 0.735 | 0.971 | 0.765
7 | Cc1c2c(nn1C)CSCc1cc(n(C)n1)CSc1cc(c3ccccc3c1)OCCCc1c(C(=O)O)n(C)c3c-2c(Cl)ccc13 [AZD5991] + CS(=O)(=O)CCNCc1ccc(-c2ccc3ncnc(Nc4ccc(OCc5cccc(F)c5)c(Cl)c4)c3c2)o1 [Lapatinib] (first compound max 1 µM, 7x7, partner max 10 µM) | -0.0118 | -0.0305 | 0.0139 | -0.019 | -0.012 | -0.146 | -0.0394 | 0.012 | -0.0485 | -0.045 | 0.0137 | -0.038 | -0.0174 | 0.0226 | -0.0147 | 0.0081 | 1 | 0.687 | 0.479 | 0.677
8 | Cc1c2c(nn1C)CSCc1cc(n(C)n1)CSc1cc(c3ccccc3c1)OCCCc1c(C(=O)O)n(C)c3c-2c(Cl)ccc13 [AZD5991] + Nc1ccn([C@@H]2O[C@H](CO)[C@@H](O)C2(F)F)c(=O)n1 [Gemcitabine] (first compound max 1 µM, 7x7, partner max 0.3 µM) | -0.024 | 0.006 | -0.0208 | 0.0117 | -0.0363 | -0.0655 | 0.0008 | 0.0488 | 0.0182 | -0.0486 | 0.0164 | -0.0103 | -0.0708 | 0.0133 | -0.0657 | 0.008 | 1 | 0.551 | 0.886 | 0.847
9 | C[C@@H]1COCCN1c1cc(C2([S@](C)(=N)=O)CC2)nc(-c2ccnc3[nH]ccc23)n1 [AZD6738] + C1CC(C1)(C(=O)[O-])C(=O)[O-].N.N.[Pt+2] [Carboplatin] (first compound max 10 µM, 7x7, partner max 10 µM) | -0.0402 | -0.0265 | -0.0502 | -0.04 | -0.0617 | -0.104 | -0.0444 | -0.0422 | -0.0554 | -0.0278 | -0.0443 | 0.0175 | -0.0615 | -0.0835 | -0.005 | -0.0517 | 0.828 | 0.547 | 0.875 | 0.7
10 | C[C@@H]1COCCN1c1cc(C2([S@](C)(=N)=O)CC2)nc(-c2ccnc3[nH]ccc23)n1 [AZD6738] + Nc1ccn([C@@H]2O[C@H](CO)[C@@H](O)C2(F)F)c(=O)n1 [Gemcitabine] (first compound max 10 µM, 7x7, partner max 0.3 µM) | -0.0064 | -0.0049 | -0.0097 | 0.128 | 0.0731 | -0.0824 | -0.012 | 0.086 | -0.0185 | 0.0209 | 0.0156 | 0.0497 | 0.0982 | 0.0251 | 0.0586 | -0.0579 | 0.942 | 0.517 | 0.981 | 0.809
11 | Cc1cc2ncnn2cc1Nc1ncc2c(n1)n(C1CCOCC1)c(=O)n2C [AZD7648] + COc1cc([C@@H]2c3cc4c(cc3[C@@H](O[C@@H]3O[C@@H]5CO[C@@H](C)O[C@H]5[C@H](O)[C@H]3O)[C@H]3COC(=O)[C@H]23)OCO4)cc(OC)c1O [Etoposide] (first compound max 10 µM, 7x7, partner max 10 µM) | 0.127 | 0.0582 | 0.116 | 0.0713 | -0.0236 | -0.0126 | 0.121 | 0.0597 | -0.0401 | 0.0771 | 0.0309 | 0.158 | 0.0299 | 0.136 | -0.0163 | 0.184 | 0.788 | 0.498 | 0.934 | 0.905
12 | C[C@@H](Nc1cc(F)cc(F)c1)c1cc(C(=O)N(C)C)cc2c(=O)cc(N3CCOCC3)oc12 [AZD8186] + C1CN(CCC1(C(=O)N[C@@H](CCO)C2=CC=C(C=C2)Cl)N)C3=NC=NC4=C3C=CN4 [AZD5363] (first compound max 10 µM, 7x7, partner max 10 µM) | -0.0203 | -0.0271 | -0.0703 | 0.0061 | -0.0505 | -0.038 | -0.0305 | 0.0003 | -0.0239 | -0.0065 | 0.0062 | -0.023 | -0.0448 | 0.0225 | -0.0285 | -0.0137 | 0.922 | 0.509 | 0.538 | 0.555
13 | C[C@@H](Nc1cc(F)cc(F)c1)c1cc(C(=O)N(C)C)cc2c(=O)cc(N3CCOCC3)oc12 [AZD8186] + CC(=O)c1c(C)c2cnc(Nc3ccc(N4CCNCC4)cn3)nc2n(C2CCCC2)c1=O [Palbociclib] (first compound max 10 µM, 7x7, partner max 10 µM) | 0.0294 | 0.0271 | 0.0167 | 0.0023 | -0.0424 | -0.0476 | 0.0009 | 0.0877 | 0.0614 | 0.0298 | -0.0077 | 0.0638 | -0.0328 | 0.0583 | -0.0346 | 0.073 | 0.563 | 0.497 | 0.412 | 0.707
